Test systems include CAKI-1 renal; HL-60(TB) leukemia; SF-539 CNS; HCT-15 colon; BT-549 breast; A549 NSCLC; KM12 colon.
Common to all, as to assay: DTP human tumour cell line panel, 48 h

Each structure is given as a SMILES string.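 All cell lines were grown in 96-well plates and treated with compound for 48 hours. TGI: total growth inhibition.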

`CNC(=O)CCCNC(=O)CCCC(=O)N(C)C`: the TGI with CAKI-1 renal, in the experiment with HL-60(TB) leukemia, with SF-539 CNS, in the experiment with HCT-15 colon, with BT-549 breast and in the experiment with A549 NSCLC was above 100 µM in each case. The compound also gave a TGI with KM12 colon above 100 µM.

In the case of `CC(C)OC(=O)OCSc1ccccc1N=Cc1cccc([N+](=O)[O-])c1`, the TGI with CAKI-1 renal, with HL-60(TB) leukemia, with SF-539 CNS, in the experiment on HCT-15 colon, in the experiment with BT-549 breast and with A549 NSCLC was above 10 µM throughout. Further, the TGI with KM12 colon is above 10 µM.

For the compound `[O-]/[N+](=C\c1ccccc1OC(=S)S)c1ccc(Cl)cc1`, the TGI is above 100 µM in the experiment with CAKI-1 renal; 45 µM with HL-60(TB) leukemia; above 100 µM in the experiment with SF-539 CNS; above 100 µM in the experiment with HCT-15 colon; above 100 µM in the experiment with BT-549 breast; above 100 µM with A549 NSCLC. Moreover, in the experiment on KM12 colon, the concentration for total growth inhibition (TGI) was above 100 µM.

For the compound `COc1cc(/C=C/C=C2\CC/C(=C\C=C\c3ccc(O)c(OC)c3)C2=O)ccc1O`, the TGI in the experiment with CAKI-1 renal is above 100 µM; in the experiment with HL-60(TB) leukemia, above 63.8 µM; in the experiment on SF-539 CNS, above 100 µM; in the experiment with HCT-15 colon it was above 100 µM; with BT-549 breast, above 100 µM; in the experiment with A549 NSCLC, above 100 µM. In the experiment with KM12 colon, this compound yielded a TGI above 100 µM.

As to `S=c1cc(-c2ccc3c(c2)OCO3)s[nH]1`, the TGI in the experiment with CAKI-1 renal, in the experiment with HL-60(TB) leukemia, with SF-539 CNS, in the experiment with HCT-15 colon, in the experiment on BT-549 breast and in the experiment on A549 NSCLC was above 100 µM throughout. In addition, in the experiment with KM12 colon, the TGI is above 100 µM.

`COC(=O)[C@H](Cc1ccccc1)NC(=O)CCCCCCC(=O)NO`: the TGI in the experiment with CAKI-1 renal, in the experiment with HL-60(TB) leukemia, in the experiment with SF-539 CNS, in the experiment on HCT-15 colon, with BT-549 breast and in the experiment with A549 NSCLC was above 100 µM throughout. Moreover, the TGI with KM12 colon was above 100 µM.

On to `Cc1cnc2c(c1)C(=O)C1=C(C2=O)C2OC(=O)CC2OC1(C)C` (configuration not stated), for which the TGI in the experiment on CAKI-1 renal stood at 0.405 µM; in the experiment with HL-60(TB) leukemia, 0.0142 µM; in the experiment with SF-539 CNS it was 0.575 µM; in the experiment with HCT-15 colon, 0.202 µM; in the experiment with BT-549 breast it was 0.363 µM; in the experiment on A549 NSCLC it was 5.62 µM. In the experiment on KM12 colon, this compound showed a TGI of 1.73 µM.

For `C[n+]1c(-c2ccc(/C=C/C=N\NC(=O)c3ccc(C(=O)N/N=C\C=C\c4ccc(-c5cn6ccccc6[n+]5C)cc4)cc3)cc2)cn2ccccc21`, the TGI in the experiment on CAKI-1 renal is above 60.4 µM; in the experiment on HL-60(TB) leukemia, above 65.7 µM; in the experiment on SF-539 CNS, above 100 µM; in the experiment on HCT-15 colon, above 100 µM; in the experiment with BT-549 breast it was above 100 µM; in the experiment with A549 NSCLC, above 100 µM. For the same compound, the TGI with KM12 colon was above 57.5 µM.

With `COc1ccc(N(C(=O)Nc2ccc(Cl)c(Cl)c2)C2c3cccn3C(=O)N2c2ccc(Cl)c(Cl)c2)cc1` (configuration not stated), the total growth inhibition concentration (TGI) in the experiment with CAKI-1 renal, in the experiment on HL-60(TB) leukemia, in the experiment on SF-539 CNS, in the experiment with HCT-15 colon, with BT-549 breast and with A549 NSCLC was above 100 µM each time. Also, the TGI in the experiment with KM12 colon was above 100 µM.

`NC(=O)N/N=C1\CC2C3CC4C2C4C13` (configuration not stated): the TGI with CAKI-1 renal, in the experiment on HL-60(TB) leukemia, with SF-539 CNS, with HCT-15 colon, in the experiment with BT-549 breast and with A549 NSCLC was above 100 µM in each case. This compound also returned a TGI in the experiment with KM12 colon above 100 µM.

Turning to `COC(=O)c1cc(C#N)[nH]c1-c1cc(Br)cs1`, the TGI in the experiment with CAKI-1 renal came out at 62.7 µM; in the experiment on HL-60(TB) leukemia it was 38.5 µM; with SF-539 CNS it was 33.3 µM; in the experiment on HCT-15 colon, 33.2 µM; with BT-549 breast it was 35.1 µM; with A549 NSCLC, 31.7 µM. In the experiment with KM12 colon, this compound gave a TGI above 53.4 µM.

`COc1nc(C#CC(C)(C)C)nc(OC)n1`: the TGI was 51.9 µM in the experiment on CAKI-1 renal; above 100 µM in the experiment with HL-60(TB) leukemia; 83.1 µM in the experiment with SF-539 CNS; 61.5 µM in the experiment with HCT-15 colon; above 100 µM in the experiment with BT-549 breast; above 100 µM in the experiment with A549 NSCLC. In addition, the TGI in the experiment with KM12 colon came to 40 µM.

As to `COc1ccc(NC(=S)NC(=O)c2ccc3c(c2)Sc2ccccc2O3)c([N+](=O)[O-])c1`, the TGI with CAKI-1 renal was above 100 µM; in the experiment on HL-60(TB) leukemia, 82.1 µM; with SF-539 CNS, above 100 µM; in the experiment with HCT-15 colon, above 100 µM; in the experiment on BT-549 breast, 70.5 µM; in the experiment on A549 NSCLC, above 100 µM. Besides, in the experiment on KM12 colon, the TGI was above 100 µM.

On to `CCOC(=O)C#Cc1ccccc1`, for which the TGI was 33.4 µM in the experiment with CAKI-1 renal; 36.5 µM with HL-60(TB) leukemia; 19.3 µM in the experiment with SF-539 CNS; above 100 µM in the experiment on HCT-15 colon; 79.5 µM in the experiment with BT-549 breast; 58.3 µM with A549 NSCLC. For the same compound, the TGI with KM12 colon is 31.2 µM.

Take `COc1ccc(CC2COc3cc(O)cc(O)c3C2=O)cc1O` (configuration not stated): the TGI is above 100 µM in the experiment on CAKI-1 renal; above 100 µM in the experiment on HL-60(TB) leukemia; 10.1 µM in the experiment on SF-539 CNS; above 100 µM with HCT-15 colon; above 100 µM with BT-549 breast; above 100 µM in the experiment on A549 NSCLC. The same compound returned a TGI with KM12 colon of 43.9 µM.

For `CCOC(=O)/C=C(\C(=O)OCC)n1ccc(=O)n(Cc2cn(COCCOC(C)=O)nn2)c1=O`, the TGI with CAKI-1 renal is 21.2 µM; with HL-60(TB) leukemia, 41.3 µM; in the experiment with SF-539 CNS, 38.9 µM; with HCT-15 colon, 38 µM; with BT-549 breast, 33.2 µM; in the experiment with A549 NSCLC, above 100 µM. Further, in the experiment on KM12 colon, the total growth inhibition concentration (TGI) is above 54.6 µM.

In the case of `O=c1cc(N2CCCC2)[nH]c(=O)n1-c1ccccc1`, the TGI in the experiment with CAKI-1 renal, in the experiment with HL-60(TB) leukemia, with SF-539 CNS, in the experiment with HCT-15 colon, in the experiment on BT-549 breast and in the experiment on A549 NSCLC was above 100 µM each time. In the experiment on KM12 colon, the TGI was above 100 µM.

Regarding `CCOP(=O)(/C=C\n1ccc(N)nc1=O)OCC`, the TGI in the experiment on CAKI-1 renal, in the experiment on HL-60(TB) leukemia, in the experiment on SF-539 CNS, in the experiment with HCT-15 colon, with BT-549 breast and in the experiment with A549 NSCLC was above 100 µM throughout. Further, the TGI in the experiment on KM12 colon was above 100 µM.

With `O=c1[nH]c(Nc2cccc(CO)c2)nc2nc[nH]c12`, the TGI in the experiment with CAKI-1 renal, in the experiment on HL-60(TB) leukemia, in the experiment with SF-539 CNS, in the experiment with HCT-15 colon, in the experiment on BT-549 breast and in the experiment on A549 NSCLC was above 100 µM each time. The compound further came in with a TGI in the experiment on KM12 colon above 100 µM.

In the case of `CC1(C)[C@H]2CC[C@@]13C(=O)N1C(=O)O[C@@H]([C@H]1Cl)C(Cl)(COCc1ccccc1)C(=O)OCCO[C@H]3C2` (some centres not stated), the TGI in the experiment with CAKI-1 renal, in the experiment on HL-60(TB) leukemia, in the experiment with SF-539 CNS, with HCT-15 colon, in the experiment on BT-549 breast and with A549 NSCLC was above 100 µM in each case. In addition, the TGI in the experiment with KM12 colon was above 100 µM.

Consider `COc1cc2ccc1OCc1cccc(n1)COc1ccc(cc1OC)C=Nc1ccc(cc1)N=C2`, for which the TGI in the experiment with CAKI-1 renal, in the experiment with HL-60(TB) leukemia, in the experiment on SF-539 CNS, in the experiment on HCT-15 colon, in the experiment with BT-549 breast and in the experiment with A549 NSCLC was above 100 µM in each case. For the same compound, the TGI in the experiment on KM12 colon is above 100 µM.

Take `Cc1ccc(/C=C2\Cc3c(C)cc(C)cc3C2=O)c(C(=O)O)c1`: the TGI with CAKI-1 renal is above 100 µM; with HL-60(TB) leukemia, 65.5 µM; with SF-539 CNS, 46.2 µM; in the experiment with HCT-15 colon, above 100 µM; in the experiment on BT-549 breast, above 100 µM; in the experiment on A549 NSCLC, above 100 µM. The compound also registered a TGI with KM12 colon above 100 µM.

Consider `COc1ccc(COCC[C@H](C)OC2OC(CO[Si](C)(C)C(C)(C)C)C(OC(=O)CCCN=[N+]=[N-])C(OC(=O)CCCN=[N+]=[N-])C2OC(=O)CCCN=[N+]=[N-])cc1` (some centres not stated), for which the concentration for total growth inhibition (TGI) in the experiment with CAKI-1 renal is above 100 µM; in the experiment with HL-60(TB) leukemia, 41.5 µM; with SF-539 CNS, above 100 µM; in the experiment with HCT-15 colon, 88.7 µM; with BT-549 breast, 68.9 µM; with A549 NSCLC, above 100 µM. Moreover, the TGI with KM12 colon was above 100 µM.

As for `C#CCN(Cc1ccc2nc(OC)c(OC)nc2c1)c1cc(OC)c(OC)c(OC)c1`, the TGI in the experiment on CAKI-1 renal was above 82.8 µM; in the experiment on HL-60(TB) leukemia, 43.5 µM; in the experiment with SF-539 CNS it was 43.6 µM; with HCT-15 colon, above 87.5 µM; in the experiment on BT-549 breast it was above 72.4 µM; with A549 NSCLC it was above 89.6 µM. Moreover, the TGI in the experiment on KM12 colon stood at 54.9 µM.

Turning to `COC(=O)C1=Nc2c(C)nn(-c3ccccc3)c2N=C(c2ccccc2)C1`, the concentration for total growth inhibition (TGI) in the experiment on CAKI-1 renal, in the experiment with HL-60(TB) leukemia, in the experiment with SF-539 CNS, with HCT-15 colon, in the experiment on BT-549 breast and with A549 NSCLC was above 10 µM throughout. The same compound came in with a TGI in the experiment on KM12 colon above 10 µM.

In the case of `COc1cc2c(cc1Cc1c(F)cccc1Cl)nc(-c1c(F)cccc1Cl)n2Cc1c(F)cccc1Cl`, the TGI in the experiment with CAKI-1 renal was 91.3 µM; with HL-60(TB) leukemia, above 100 µM; with SF-539 CNS, 60.1 µM; with HCT-15 colon, above 100 µM; in the experiment with BT-549 breast, above 100 µM; in the experiment on A549 NSCLC, above 100 µM. In the experiment with KM12 colon, this compound showed a TGI above 100 µM.

In general, TGI refers to the concentration giving total growth inhibition. A low value points to more potent growth arrest.

The record behind these values is PubChem BioAssay (NCI).
